Data set [1] can be described thus: AUCinfinity in ICR mouse at 1 mg/kg, iv measured upto 24 hrs by LC-MS/MS analysis. The data set is classed as ADME, organism-based. The note with it: in vivo.
Data set [2] can be described thus: MRT(0 to t) in ICR mouse at 10 mg/kg, po measured upto 24 hrs by LC-MS/MS analysis. The data set is classed as ADME, organism-based. The note with it: in vivo.
The conditions of data set [3]: human, plasma, 1 h.
Description: Metabolic stability in human plasma measured upto 60 mins in presence of NADPH by LC-MS/MS analysis
Data set [4] is described as follows: MRT(0 to t) in ICR mouse at 1 mg/kg, iv measured upto 24 hrs by LC-MS/MS analysis. The note with it: in vivo. The format is ADME, organism-based.
A short description of data set [5]: Half life in ICR mouse at 10 mg/kg, po measured upto 24 hrs by LC-MS/MS analysis. The format is ADME, organism-based. The note with it: in vivo.
Data set [6] can be described thus: Oral bioavailability in ICR mouse at 10 mg/kg measured upto 24 hrs by LC-MS/MS analysis. The format is ADME, organism-based. The note with it: in vivo.
Data set [7] in a line: MRTinfinity in ICR mouse at 10 mg/kg, po measured upto 24 hrs by LC-MS/MS analysis. The data set is classed as ADME, organism-based. The note with it: in vivo.
The nature of data set [8]: Drug concentration in ICR mouse at 10 mmg/kg, po measured after 0.5 to 24 hrs. The data set is classed as ADME, organism-based. The note with it: in vivo, 10 mg/kg, time 0.5-24 hrs.
Data set [9] is described as follows: MRTinfinity in ICR mouse at 1 mg/kg, iv measured upto 24 hrs by LC-MS/MS analysis. The format is ADME, organism-based. The note with it: in vivo.
Data set [10] is described as follows: AUC(0 to 24 hrs) in ICR mouse at 1 mg/kg, iv measured upto 24 hrs by LC-MS/MS analysis. The data set is classed as ADME, organism-based. The note with it: in vivo.
The nature of data set [11]: Tmax in ICR mouse at 10 mg/kg, po measured upto 24 hrs by LC-MS/MS analysis. The format is ADME, organism-based. The note with it: in vivo.
Data set [12] in a line: Cmax in ICR mouse at 10 mg/kg, po measured upto 24 hrs by LC-MS/MS analysis. The format is ADME, organism-based. The note with it: in vivo.
The conditions of data set [13]: microsomes, 1 h, 1.5 µM.
Description: Metabolic stability in liver microsomes (unknown origin) at 1.5 uM measured upto 60 mins in presence of NADPH by LC-MS/MS analysis
Data set [14] can be described thus: Cmax in ICR mouse at 1 mg/kg, iv measured upto 24 hrs by LC-MS/MS analysis. The data set is classed as ADME, organism-based. The note with it: in vivo.
Data set [15] in a line: AUC(0 to 24 hrs) in ICR mouse at 10 mg/kg, po measured upto 24 hrs by LC-MS/MS analysis. The format is ADME, organism-based. The note with it: in vivo.
The nature of data set [16]: Half life in ICR mouse at 1 mg/kg, iv measured upto 24 hrs by LC-MS/MS analysis. The data set is classed as ADME, organism-based. The note with it: in vivo.
A short description of data set [17]: AUCinfinity in ICR mouse at 10 mg/kg, po measured upto 24 hrs by LC-MS/MS analysis. The data set is classed as ADME, organism-based. The note with it: in vivo.
Data set [18] in a line: Tmax in ICR mouse at 1 mg/kg, iv measured upto 24 hrs by LC-MS/MS analysis. The format is ADME, organism-based. The note with it: in vivo.

The AUC(0-inf) is the area under the concentration-time curve extrapolated to infinity. A higher AUC(0-inf) goes with high exposure. For orientation: MRT last means a mean duration of stay, worked out from the concentration-time curve. By half-life is commonly meant the time needed for the level to fall by half in the phase considered. Broadly, the bioavailability is the share of a dose that reaches the circulation, judged against a reference dose that is usually intravenous. High values mean much systemic uptake, low ones little systemic uptake. The MRT inf is a mean duration of stay, worked out from the concentration-time curve. What is called AUC(0-t) is the area under the concentration-time curve up to a stated or last time point. Low readings indicate low exposure, high ones high exposure. What is called Tmax is the time at which the peak concentration occurs. As a reminder, the Cmax is the maximum level reached in the sampled fluid or tissue.

As for `Cc1cc(Nc2ncc(Cl)c(Nc3ccccc3S(=O)(=O)C(C)C)n2)c(OC(C)C)cc1C1CCN(C2CN(C3CCN(c4ccc5c(c4)C(=O)N(C4CCC(=O)NC4=O)C5=O)CC3)C2)CC1` (stereo not given), the AUC(0-inf) was 21700 ng·h/mL in data set [1] and 30800 ng·h/mL in data set [17]. Moreover, the mean residence time (MRT last) at 24 h in data set [2] was 8.61 h; in [4], 7.19 h. Besides, the Stability result in data set [3] and in [13] was “Stable” each time. In addition, the half-life in [5] was 11.2 h; in data set [16] it was 10.8 h. This compound also displayed a bioavailability in data set [6] of 14.2%. The figures for the mean residence time MRT inf in data set [7] and in data set [9] were 15.7 h and 13.2 h, respectively. The compound also displayed a Drug uptake in data set [8] of 400 ng/mL. The AUC(0-t) at 24 h in [10] came out at 17600 ng·h/mL; in [15], 23900 ng·h/mL. Besides, the time to peak (Tmax) was 4 h in data set [11] and 4.98 min in [18]. The Cmax is 1710 ng/mL in data set [12] and 3000 ng/mL in [14].

Regarding `Cc1cc(Nc2ncc(Cl)c(Nc3ccccc3S(=O)(=O)C(C)C)n2)c(OC(C)C)cc1C1CCN(C2CCN(C3CN(c4ccc5c(c4)C(=O)N(C4CCC(=O)NC4=O)C5=O)C3)CC2)CC1` (stereo not given), the Stability entry in [3] and in data set [13] was “Stable” in each case.

Source of the values: ChEMBL document CHEMBL6127061, “Discovery of orally bioavailable ALK PROTACs based ceritinib against ALK positive cancers” (Eur J Med Chem, 2024).
